Data on one substance can be found in patent US11331375B2, “Compositions and methods for regulating leukocyte adhesion” (University of Virginia Patent Foundation, priority 2015, dated 2022).

The test system of one test is C57B1/6J mice. Briefly: Intravital microscopy of cremaster muscle for leukocyte adhesion and emigration. It counts as in vivo, mouse. The conditions noted are these: topical TNFα on cremaster, after 120 minutes. How it is done:
Mice were prepared for intravital microscopy of the cremaster muscle as described previously^25. Briefly, mice were anesthetized with ketamine hydrochloride (150 mg/kg, IP) and xylazine (7.5 mg/kg, IP). The cremaster was isolated, laid over a viewing pedestal, superfused with bicarbonate-buffered saline. After 30 min equilibration, a venule with a wall shear rate (WSR) of ≥500/s, diameter between 20 μm and 40 μm, and the least number of adherent and emigrated leukocytes was chosen for further study. A 1 min baseline recording was made, after which superfusion was stopped, and 50 μl TNFα (1.7 ng/ml in 0.1% BSA) or vehicle control was added under a saran wrap cover every 30 min. 1 min recordings were made just prior to each addition, for 3 hrs. The TNFα was initially reconstituted in PBS at 3.4 ng/ml and 150 μl aliquots were frozen. An aliquot was mixed 1:1 with BBS containing 0.2% BSA at the time of the experiment. Leukocyte adhesion and emigration were determined by off-line analysis. Leukocytes were considered adherent if they stopped for at least 30 s (expressed as #/mm^2 vessel wall), and emigrated leukocytes were leukocytes identified in the interstitium (expressed as #cells/mm^2 tissue). Data are expressed as mean±SEM (n=6-7 independent animals/group).

The test system of the next test is Panx1. Briefly: Western blot of pY198Panx1 in isolated mesenteric venules. The test is classed as cell-based, mouse. Conditions: mesenteric venules perfused with TNFα 50 ng/mL 30 minutes. How it is done:
Following stimulation with TNFα (in vitro: 10 ng/mL; ex vivo: 50 ng/mL), confluent endothelial cell monolayers or isolated mesenteric venules were homogenized in ice cold Triton extraction buffer (50 mM Tris-HCL, 150 mM NaCl , 5 mM EDTA, 1% deoxycholate, 1% NP-40 and 1% Triton-X100 in phosphate buffered saline and pH adjusted to 7.4) containing protease and phosphatase inhibitors. Cell/Tissue lysates were incubated with rotation at 4° C. for 20 minutes to solubilize proteins, followed by centrifugation for 5 minutes at 13,000× g to pellet cell debris. Protein concentration was quantified using the BCA method. 15-20 μg of total protein was subjected to SDS gel electrophoresis using 4-12% Bis-Tris gels (Invitrogen) and transferred to nitrocellulose membranes for immunoblotting. Membranes were blocked for 1 hr at room temperature with LiCOR blocking solution, then incubated overnight at 4° C. with primary antibodies against pY416SFKs, (BD Biosciences; 1:1000) pY198Panx1 (Alpha Diagnostic Intl (ADI); 1:1000) and GAPDH (Sigma; 1:10,000) or an antibody against the intracellular loop of Panx1 (Panx1-IL) (ADI; 1:1000) (normalization controls). Membranes were then washed and incubated with LiCOR secondary antibodies (1:10,000) and visualized and quantitated using LiCOR Odyssey. […] Data are expressed as mean±SEM (n=3 independent experiments).
(Immunoblotting shows a protein as a band on a membrane.)

On to TNFα, for which, in the test on C57B1/6J mice, the “increase of leukocyte adhesion” value is reported as about 2.5 fold and the “increase of leukocyte emigration” value is listed as about 3.5 fold. For the same substance, the “phosphorylation of Panx1” value with Panx1 is recorded as “promoted phosphorylation of Panx1”.
